The values that follow come from patent publication US7166472B2, “Method for the identification of agents that inhibit or promote cataracts and uses thereof” (The General Hospital Corporation, priority 2000, dated 2007).

Each structure is given as a SMILES string.

Assay [1] can be described thus: Hydrogen peroxide assay (DCF fluorometric). Type of assay: biochemical. Conditions: reacting with Cu(II), 37° C., dark.
A short description of assay [2]: Thiobarbituric acid-reactive substance (TBARS) assay for hydroxyl radical. Type of assay: biochemical. Conditions: reaction with Cu(II). From the text: Although two Fenton chemistry substrates, hydrogen peroxide and reduced redox-active metal, are produced by 3-HK and 3-HAA, evidence of the hydroxyl radical was not detected using the thiobarbituric acid-reactive substance assay (Huang, X. et al., Biochem. 38:7609–7616 (1999)) (data not shown).

The nature of assay [3]: Metal reduction assay, Cu(II) to Cu(I) (BC/BCA indicator). Format: biochemical. Conditions: test compound 10 μM, Cu(II)-glycine 25 μM, PBS pH 7.4, 37° C., dark, one hour.
The nature of assay [4]: Cyclic voltammetry of kynurenine metabolites with Cu(II). Conditions: metabolite 100 μM, cupric chloride 25 μM, PBS pH 7.4. Format: physicochemical. The protocol: Cyclic Voltammetry—Cyclic voltammetry was performed at room temperature (22±2° C.) on ambient solutions using an EG&G PAR potentiostat, Model 273. The potentiostat was operated in Ramp Mode, generating a potential staircase waveform with a 0.25 mV step height. The potential window of +0.15 to −0.4V, in which Cu(I) is electroactive, but the metabolites are not, was scanned in both directions at a rate of 100 mV/sec. The current response was passed through a 5.3 Hz low pass filter. A minimum of three cycles were collected for each scan, ensuring the stability of the electrochemical response. The electrochemical cell consisted of an indium/tin oxide working electrode (Delta Technologies) with an active area of 0.32 cm^2, a platinum wire auxiliary electrode, and a Ag/AgCl (1 M KCl) reference electrode (Microelectrodes Inc.). Both the auxiliary and reference electrodes were positioned in the cell in close proximity to the working electrode. The working electrodes were pretreated with successive 10 minute sonications in Alconox (˜8 g/L), 95% ethanol, Milli-Q purified H2O (2×), and PBS (pH 7.4), followed by an overnight soak in PBS (pH 7.4). The ITO electrodes were subsequently “activated” immediately prior to use by successive cycling in PBS for three cycles in each of the following potential windows: +0.15 ? −0.4 V, +0.4 ? −0.4 V, and +1.0 ? −0.4 V. Cupric chloride (25 μM; Allied Chemical) was used as the Cu(II) source. Background voltammograms were obtained on each new electrode before testing the kynurenine pathway metabolites. PBS solutions of KYN, 3-HK, ANA, and 3-HAA (each at 100 μM) were separately scanned with and without added Cu(II) (25 μM). Each experiment also included a scan of Cu(II) (25 μM) in PBS without added test compound. All solutions were tested within minutes of being prepared. Each test was repeated to ensure the reproducibility of the results.
The voltammograms in FIGS. 3A–3D compare 3-HK and 3-HAA to their corresponding non-phenolic analogs, kynurenine (KYN) and anthranilic acid (ANA), in aqueous solutions of Cu(II) at pH 7.4. […] At potentials above +0.15 V, the metabolites undergo direct irreversible oxidation, a reaction that is not considered further here. Cyclic voltammetry of Cu(II) in PBS yielded a current response at ≈−100 mV due to reduction of the metal ion (scan “b” in each panel).

Assay [5] addresses T1, α-crystallin (Bos taurus, UniProt P02470+P02510).
T1 sequence (P02470 1-173): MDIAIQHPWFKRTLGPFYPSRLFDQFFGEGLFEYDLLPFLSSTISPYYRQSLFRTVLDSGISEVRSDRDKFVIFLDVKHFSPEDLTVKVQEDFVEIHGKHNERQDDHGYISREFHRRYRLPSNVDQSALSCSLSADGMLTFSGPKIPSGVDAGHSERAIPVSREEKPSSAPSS
T1 sequence (P02510 1-175): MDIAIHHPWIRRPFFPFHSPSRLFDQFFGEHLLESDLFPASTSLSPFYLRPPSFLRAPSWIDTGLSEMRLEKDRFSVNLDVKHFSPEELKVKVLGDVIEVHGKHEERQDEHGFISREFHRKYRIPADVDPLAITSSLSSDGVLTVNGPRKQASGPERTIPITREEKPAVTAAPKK
Nature of the assay: α-Crystallin modification under longwave ultraviolet illumination. Format: biochemical. Conditions: exposure of α-crystallin in the presence of longwave ultraviolet illumination.

Take `Nc1c(O)cccc1C(=O)CC(N)C(=O)O` (centres unmarked) [3-HK, 3-hydroxykynurenine]: the “time dependence of hydrogen peroxide generation” value in assay [1] is “continuous over five hours”. The “evidence of the hydroxyl radical” value in assay [2] is “not detected”. Moreover, the “reduction of Cu(II)” value in assay [3] is 100%. Besides, the “Cu(II) reduction wave in presence of metabolite” value in assay [4] was “nearly abolished”. Besides, the “capacity of altered α-crystallin to reduce metal and generate hydrogen peroxide” value in assay [5] is given as “dramatically enhanced capacity”.
